pIC50, pKi: −log10 of the molar value. Peptide text beside a SMILES is read from it. * marks the point of attachment. Cbz = O=C(OCc1ccccc1)*

For experiment [1], the target named is Cathepsin B (Homo sapiens, UniProt P07858). Description: Inhibitory activity against recombinant human cathepsin B.
In experiment [2] the target is T1, Cathepsin K (Homo sapiens, UniProt P43235).
T1 sequence (P43235 whole entry): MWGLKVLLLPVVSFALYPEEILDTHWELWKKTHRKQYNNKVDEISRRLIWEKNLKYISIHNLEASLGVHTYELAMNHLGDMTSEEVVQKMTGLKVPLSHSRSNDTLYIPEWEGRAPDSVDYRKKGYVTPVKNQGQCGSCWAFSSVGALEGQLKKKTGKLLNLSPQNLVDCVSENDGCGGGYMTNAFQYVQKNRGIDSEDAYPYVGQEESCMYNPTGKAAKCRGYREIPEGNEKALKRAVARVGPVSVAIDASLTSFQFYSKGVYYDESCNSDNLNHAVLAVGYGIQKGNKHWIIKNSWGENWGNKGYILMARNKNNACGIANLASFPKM
Description: Inhibitory activity against recombinant human cathepsin K.

Experiment [3] concerns the target T2, Procathepsin L (Homo sapiens, UniProt P07711). The experiment in a line: Inhibitory activity against recombinant human cathepsin L.
The target in experiment [4] is T2, Procathepsin L. The experiment in a line: Inhibitory activity against recombinant human cathepsin L (1.2 nM).
For experiment [5], the species on record is Homo sapiens. Description: Inhibitory activity against bone resorption in human. The format is functional. Particulars: Bone element.
Experiment [6] is filed under the species Mus musculus. Description: Inhibitory activity against bone resorption in mouse. The format is functional.

T2 sequence (P07711 whole entry): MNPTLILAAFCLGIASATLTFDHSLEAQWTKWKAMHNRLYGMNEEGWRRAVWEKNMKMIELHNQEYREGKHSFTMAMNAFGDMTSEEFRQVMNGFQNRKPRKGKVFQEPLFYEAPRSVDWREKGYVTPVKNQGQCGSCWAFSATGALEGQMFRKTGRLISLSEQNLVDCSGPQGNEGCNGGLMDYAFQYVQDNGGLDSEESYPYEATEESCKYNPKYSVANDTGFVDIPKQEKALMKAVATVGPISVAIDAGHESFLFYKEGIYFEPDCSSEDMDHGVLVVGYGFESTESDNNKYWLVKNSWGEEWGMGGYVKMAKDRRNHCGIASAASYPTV

Broadly, the pKi is the negative decadic logarithm of the Ki, by convention in mol/L. For orientation: pIC50 means the negative decadic logarithm of the IC50, by convention in mol/L. In the case of `O=C(CNC(=O)OCc1ccccc1)N[C@@H](CCc1ccccc1)CNc1ccc(N2CCCCC2)cc1`, the pKi in experiment [1] is below 5.00. For the same compound, the pIC50 in experiment [2] and in experiment [3] was below 5.00 each time.

Take `CSCC[C@@H](C=O)NC(=O)[C@H](CC(C)C)NC(=O)OCc1ccccc1` (Cbz-Leu-Met-aldehyde): the pIC50 in experiment [4] was 8.30; in experiment [3], 8.89.

`CC(C)C[C@H](NC(=O)OCc1ccccc1)C(=O)N[C@H](CNc1ccc(-c2ccccc2)cc1)Cc1ccccc1`: the pIC50 in experiment [2] is 6.15; in experiment [3], 7.49.

As to `CC(C)[C@@H](NC(=O)OCc1ccccc1)C(=O)N[C@@H](CCc1ccccc1)CNc1ccc(N2CCCCC2)cc1`, the pKi in experiment [1] was 8.15. Moreover, the pIC50 is 6.25 in experiment [5], 6.48 in experiment [6], 8.40 in experiment [2] and 9.00 in experiment [3].

As for `O=C(N[C@H](CCc1ccccc1)C(=O)N[C@@H](CCc1ccccc1)CNc1ccc(N2CCCCC2)cc1)OCc1ccccc1`, the pKi in experiment [1] was 5.01. The pIC50 is 7.85 in experiment [2] and 8.05 in experiment [3].

In the case of `CC(C)C[C@H](NC(=O)OCc1ccccc1)C(=O)N[C@H](CNc1ccc(N2CCCCC2)cc1)Cc1ccccc1`, the pIC50 is 6.00 in experiment [5], 6.00 in experiment [6], 8.00 in experiment [2] and 8.70 in experiment [3].

`CC(C)C[C@H](NC(=O)OCc1ccccc1)C(=O)N[C@H](CNc1ccc(N2CCOCC2)cc1)Cc1ccccc1`: the pIC50 is 7.82 in experiment [2] and 8.70 in experiment [3].

On to `CC(C)C[C@H](NC(=O)OCc1ccccc1)C(=O)N[C@H](C=O)Cc1ccccc1` (Cbz-Leu-Phe-aldehyde), for which, in experiment [3], the pIC50 is 7.70.

Turning to `CC(C)C[C@H](NC(=O)OCc1ccccc1)C(=O)N[C@H](CNc1ccccc1)Cc1ccccc1`, the pIC50 was 5.96 in experiment [2] and 6.64 in experiment [3].

Consider `O=C(N[C@H](Cc1ccccc1)C(=O)N[C@@H](CCc1ccccc1)CNc1ccc(N2CCCCC2)cc1)OCc1ccccc1`, for which the pKi in experiment [1] is 6.78. The pIC50 in experiment [2] is 8.52; in experiment [3], 9.00.

Consider `C[C@@H](NC(=O)OCc1ccccc1)C(=O)N[C@@H](CCc1ccccc1)CNc1ccc(N2CCCCC2)cc1`, for which, in experiment [1], the pKi was 5.68. For the same compound, the figures for the pIC50 in experiment [2] and in experiment [3] were 8.05 and 5.39, respectively.

With `O=C(N[C@H](Cc1ccc(O)cc1)C(=O)N[C@@H](CCc1ccccc1)CNc1ccc(N2CCCCC2)cc1)OCc1ccccc1`, the pKi in experiment [1] is 6.97. Also, the pIC50 was 8.10 in experiment [2] and 9.00 in experiment [3].

As to `O=C(N[C@@H](CCc1ccccc1)CNc1ccc(N2CCCCC2)cc1)C1CCCN1C(=O)OCc1ccccc1` (stereo not given in full), the pKi in experiment [1] was below 5.00. Moreover, the pIC50 in experiment [2] was 7.92; in experiment [3], 5.11.

With `CSCC[C@@H](NC(=O)OCc1ccccc1)C(=O)N[C@@H](CCc1ccccc1)CNc1ccc(N2CCCCC2)cc1`, the pKi in experiment [1] was 7.92. Besides, the pIC50 is 8.52 in experiment [2] and 7.44 in experiment [3].

As for `O=C(N[C@H](CC1C=Nc2ccccc21)C(=O)N[C@@H](CCc1ccccc1)CNc1ccc(N2CCCCC2)cc1)OCc1ccccc1` (stereo not given in full), in experiment [1], the pKi is 5.47. The pIC50 was 7.32 in experiment [2] and 9.00 in experiment [3].

In the case of `CC(C)C[C@@H](NC(=O)OCc1ccccc1)C(=O)N[C@@H](CCc1ccccc1)CNc1ccc(N2CCCCC2)cc1`, the pKi in experiment [1] is 6.18. The pIC50 in experiment [2] is 8.30; in experiment [3] it was 8.70.

The values are drawn from ChEMBL document CHEMBL1146716, “(4-Piperidinylphenyl)aminoethyl amides as a novel class of non-covalent cathepsin K inhibitors” (Bioorg Med Chem Lett, 2004).
